Assay results reported in paper doi:10.1101/2024.08.19.608619, “Discovery of potent SARS-CoV-2 nsp3 macrodomain inhibitors uncovers lack of translation to cellular antiviral response” (bioRxiv, 2024).
In brackets after ≈: the same amount, converted by molar mass. Several values for one entry are separate records, joined by “and”; a condition that tells them apart may be missing. Equal entries are not always repeated. Where two headings read alike, the source gives them in different places.

Legend:
[1] = test system: SARS-CoV-2, isolate USA-WA1/2020; experiment: microbe, parasite or virus in culture; type: cell-based; details: HeLa-ACE2 SARS-CoV-2 antiviral effect without P-gp inhibitor; for perc_max_measured: maximum measured response of dose series; for perc_min_measured: minimum measured response of dose series; for EC50: read-out: ec50; for EC90: read-out: ec90
SARS-CoV-2 = experiment: Antiviral effect in iPSC-derived pneumocyte system; type: cell-based; details: iPSC pneumocytes SARS-CoV-2 antiviral effect; for perc_max_measured: maximum measured response of dose series; for perc_min_measured: minimum measured response of dose series
[2] = Hepatic microsomal stability, HLM; type: in vitro ADME, human; details: In vitro human liver microsomal stability; for perc_remaining_no_cofactor: no cofactor
[3] = Hepatic microsomal stability, MLM; type: in vitro ADME; details: In vitro mouse liver microsomal stability; for perc_remaining_no_cofactor: no cofactor
iPSC pneumocytes = iPSC pneumocytes cytotoxicity; type: cell-based; details: for perc_max_measured: highest measured response of the dose series; for perc_min_measured: lowest measured response of the dose series
Text: Supplement media-1.zip/Cytotoxicity.csv, table | column: cc10; cc50; perc_min_measured; perc_max_measured

HeLa-ACE2 cells = details: for perc_max_measured: highest measured response of the dose series; for perc_min_measured: lowest measured response of the dose series
LogD = details: pH 7.4; In vitro LogD
in vitro [4] = experiment: in vitro; parameters: Cytotoxicity in iPSC-derived pneumocytes, CC50; details: human, ipsc-derived pneumocytes, read-out: 50.0
Text: Finally, we consider the hypothesis that interferon response triggers ADP-ribosylation, thus profiling the compounds in enhanced and physiologically relevant interferon environments could reveal detectable antiviral effects. […] Furthermore, HeLa-ACE2 cells, and all cancerous cell lines, display defective innate immune response ([1]). As such, we also assess our compound in a primary-like iPSC-derived pneumocyte system (Figure 7C), showing likewise a lack of antiviral activity in this physiologically relevant innate immunity system.

[5] = In vitro kinetic solubility; details: In vitro kinetic solubility, ph 7.4
[6] = Permeability Papp (AB) MDR1/MDCKII; details: for perc_recovery_a_to_b_mean / perc_recovery_a_to_b_inhibitor_mean: recovery A to B; for papp_b_to_a_mean: B to A; for perc_recovery_b_to_a_mean / perc_recovery_b_to_a_inhibitor_mean: recovery B to A; for perc_recovery_a_to_b_inhibitor_mean / perc_recovery_b_to_a_inhibitor_mean: MDR1-MDCKII
in vitro [7] = details: human, hela-ace2 cells, 50.0
[8] = protocol HeLa-ACE2 cytotoxicity
[9] = In vitro MDR1-MDCKII permeability, no inhibitor
[10] = protocol iPSC pneumocytes cytotoxicity

Row | SMILES | perc_max_measured [1] | perc_min_measured [1] [%] | EC50 [1] [µM] | EC90 [1] [µM] | EC50 (SARS-CoV-2) [µM] | EC90 (SARS-CoV-2) [µM] | perc_max_measured (SARS-CoV-2) [%] | perc_min_measured (SARS-CoV-2) [%] | clint [2] [µL/min/mg] | perc_remaining [2] [%] | t_half [2] [min] | perc_remaining_no_cofactor [2] [%] | clint [3] [µL/min/mg] | perc_remaining [3] [%] | t_half [3] [min] | perc_remaining_no_cofactor [3] [%] | CC50 (iPSC pneumocytes) [µM] | cc10 (iPSC pneumocytes) [µM] | perc_max_measured (HeLa-ACE2 cells; [8]) | perc_min_measured (HeLa-ACE2 cells; [8]) | also measured
1 | CNC(=O)Cn1cc(-c2cc3c(N[C@H](c4ccc5c(c4)S(=O)(=O)CCC5)C(C)C)ncnc3[nH]2)cn1 (single isomer, unassigned) [ASAP-0011171] | 108.143% | 92.194 | > 20 | > 20 | > 50 | > 50 | 106.027 | 60.326 | 92.0 | 23.0 | 18.1 | 101.0 | 111.0 | 16.0 | 15.0 | 96.0 | > 50 | > 50.0 | 102.722% | 92.936% | perc_max_measured (iPSC pneumocytes): 98.842%; perc_min_measured (iPSC pneumocytes): 89.646%; CC50 (HeLa-ACE2 cells; [8]): > 20 µM; cc10 (HeLa-ACE2 cells; [8]): > 20.0 µM; logd (LogD): 2.4; CC50 (in vitro [4]; ASAP-0008327-001=ASAP-0011171-001): > 50 µM; solubility_mean [5]: 323 µM (≈ 164 µg/mL); papp_a_to_b_mean ([6]; In vitro MDR1-MDCKII permeability, A to B, mean): 0.396 ×10⁻⁶ cm/s; perc_recovery_a_to_b_mean ([6]; In vitro MDR1-MDCKII permeability, mean): 65.1%
2 | CC(C)[C@@H](Nc1ncnc2[nH]c(-c3cnn(CC(N)=O)c3)cc12)c1ccc2c(n1)OCCO2 (single isomer, unassigned) [ASAP-0012315] | 122.738% | 101.22 | > 20 | > 20 | > 50 | > 50 | 94.962 | 56.467 | 18.0 | 77.0 | 91.8 | 95.0 | 9.0 | 90.0 | 182.3 | 102.0 | > 50 | > 50.0 | 91.832% | 81.293% | perc_max_measured (iPSC pneumocytes): 105.354%; perc_min_measured (iPSC pneumocytes): 100.058%; logd (LogD): 2.4; CC50 (in vitro [4]; ASAP-0008327-001=ASAP-0012315-001): > 50 µM; solubility_mean [5]: 395 µM (≈ 177 µg/mL); papp_b_to_a_mean [6, 9]: 2.3 ×10⁻⁶ cm/s and 3.5 ×10⁻⁶ cm/s; perc_recovery_a_to_b_mean [6, 9]: 59.0% and 72.1% and 66.1%; perc_recovery_b_to_a_mean [6, 9]: 78.3% and 92.2%; perc_recovery_a_to_b_inhibitor_mean ([6]; with inhibitor Cyclosporin A): 64.5%; perc_recovery_a_to_b_inhibitor_mean ([6]; with inhibitor Verapamil): 96.8%; perc_recovery_b_to_a_inhibitor_mean ([6]; with inhibitor Cyclosporin A): 57.4%; perc_recovery_b_to_a_inhibitor_mean ([6]; with inhibitor Verapamil): 85.3%
3 | CC(C)[C@@H](Nc1ncnc2[nH]c(C(=O)N[C@H]3CCN(C)C3)cc12)c1ccc2c(c1)S(=O)(=O)CCC2 (single isomer, unassigned) [ASAP-0012336] | 102.123% | 84.181 | > 20 | > 20 | > 50 | > 50 | 114.501 | 59.767 | 26.0 | 66.0 | 64.0 | 107.0 | 4.0 | 92.0 | 433.8 | 92.0 | > 50 | > 50.0 | 90.418% | 77.593% | perc_max_measured (iPSC pneumocytes): 106.87%; perc_min_measured (iPSC pneumocytes): 91.721%; CC50 (HeLa-ACE2 cells; [8]): > 20 µM; cc10 (HeLa-ACE2 cells; [8]): > 20.0 µM; logd (LogD): 1.5; CC50 (in vitro [4]; ASAP-0008327-001=ASAP-0012336-001): > 50 µM; solubility_mean [5]: 392 µM (≈ 195 µg/mL); papp_b_to_a_mean [6, 9]: 0.038 ×10⁻⁶ cm/s; efflux_ratio [6, 9]: 0.5; perc_recovery_a_to_b_mean [6, 9]: 53.5% and 74.5%; perc_recovery_b_to_a_mean [6, 9]: 66.7%; perc_recovery_a_to_b_inhibitor_mean ([6]; with inhibitor Verapamil): 95.9%; perc_recovery_b_to_a_inhibitor_mean ([6]; with inhibitor Verapamil): 77.9%
4 | CC(C)[C@@H](Nc1ncnc2[nH]c(C(N)=O)cc12)c1ccc2c(c1)OCCO2 [ASAP-0008438] | 108.483% and 95.443% |  | > 20 | > 20 | > 50 | > 50 | 162.718 | 51.066 |  |  |  |  |  |  |  |  |  |  | 102.95% and 76.872% | 63.007% and 58.0% | CC50 (iPSC pneumocytes; [10]): > 50 µM; cc10 (iPSC pneumocytes; [10]): > 50.0 µM; perc_max_measured (iPSC pneumocytes; [10]): 107.376%; perc_min_measured (iPSC pneumocytes; [10]): 74.883%; cc10 (HeLa-ACE2 cells): < 0.082 µM; cc50 (HeLa-ACE2 cells): < 0.082 µM; CC50 (in vitro [4]; ASAP-0008327-001=ASAP-0008438-001): > 50 µM
5 | Cc1ncc(-c2cc3c(N[C@@H](c4ccc5c(c4)OCCO5)C(C)C)ncnc3[nH]2)cn1 [ASAP-0008490] | 95.537% and 100.014% |  | 4.51 | > 20 | 15.7 | 36 | 160.084 | 9.251 |  |  |  |  |  |  |  |  |  |  | 110.055% and 97.495% | 79.698% and 83.505% | CC50 (iPSC pneumocytes; [10]): > 50 µM; cc10 (iPSC pneumocytes; [10]): > 50.0 µM; perc_max_measured (iPSC pneumocytes; [10]): 94.665%; perc_min_measured (iPSC pneumocytes; [10]): 63.131%; CC50 (HeLa-ACE2 cells): > 20 µM; cc10 (HeLa-ACE2 cells): > 20.0 µM; CC50 (in vitro [4]; ASAP-0008327-001=ASAP-0008490-001): > 50 µM; CC50 at 24 h (in vitro [7]): > 20 µM
